pIC50: −log10 of the molar value.

The values below come from patent US20240132464A1, “HETEROCYCLIC COMPOUNDS AS E3 LIGASE INHIBITORS” (Accutar Biotechnology Inc., priority 2022, published 2024).

This experiment concerns the target T1, GID4 (Uniprot ID: Q81VV7, residues 124-289) (Homo sapiens, UniProt Q8IVV7).
T1 construct: GID4 (Uniprot ID: Q81VV7, residues 124-289)
T1 sequence (Q8IVV7 124-289): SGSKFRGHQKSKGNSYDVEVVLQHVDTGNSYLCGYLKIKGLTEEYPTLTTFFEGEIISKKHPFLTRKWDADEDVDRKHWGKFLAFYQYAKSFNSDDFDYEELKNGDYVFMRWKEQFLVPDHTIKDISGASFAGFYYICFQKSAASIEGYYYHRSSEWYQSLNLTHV
The experiment is described as follows: GID4 competitive binding assay (AlphaScreen, GID4/degron peptide PGLW). To be noted: 24 nM GID4, 48 nM biotinylated degron peptide PGLW, 4° C., read-out: IC50 (Inhibition of GID4/Degron binding by test compounds). In outline:
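Displacement of biotin-tagged degron tetrapeptide PGLW (48 nM) from C-terminally 6His-tagged GID4 124-289 (24 nM) read by AlphaScreen proximity signal. Compound incubation 2 h, then beads 1 h, all at 4 °C, pH 7.5, 2% DMSO final; background-corrected inhibition fitted with variable slope for IC50.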
(In general: Bead proximity is the source of the signal in Alpha formats.)
Take `CC(C)c1cc(N2CCC=C(c3ccccc3Br)C2)nc(N)n1` [Compound 230, 4-(5-(2-bromophenyl)-3,6-dihydropyridin-1(2H)-yl)-6-isopropylpyrimidin-2-amine]: the pIC50 was less than 5.30.
With `CC(C)c1cc(N2CCC(O)(c3ccccc3Br)C2)nc(N)n1` (stereo not shown) [Compound 231, 1-(2-amino-6-isopropylpyrimidin-4-yl)-3-(2-bromophenyl)pyrrolidin-3-ol], the pIC50 was less than 5.30.
For `CC(C)c1cc(N2CCCC(c3nn(C)c4ccccc34)C2)nc(N)n1` (stereo not shown) [Compound 232, 4-isopropyl-6-(3-(1-methyl-1H-indazol-3-yl)piperidin-1-yl)pyrimidin-2-amine], the pIC50 was 5.30 to 6.30.
The result for `CC(C)c1cc(N2CCCC(F)(c3ccccc3Br)C2)nc(N)n1` (stereo not shown) [Compound 233, 4-(3-(2-bromophenyl)-3-fluoropiperidin-1-yl)-6-isopropylpyrimidin-2-amine] reads 5.30 to 6.30; that for `Nc1cc(N2CCCC(O)(c3ccccc3Br)C2)nc(N)n1` (stereo not shown) [Compound 234, 3-(2-bromophenyl)-1-(2,6-diaminopyrimidin-4-yl)piperidin-3-ol], 5.30 to 6.30; that for `CC(C)c1cc(N2CCCC(c3ncn4ccccc34)C2)nc(N)n1` (stereo not shown) [Compound 235, 4-(3-(imidazo[1,5-a]pyridin-1-yl)piperidin-1-yl)-6-isopropylpyrimidin-2-amine], greater than 6.30.
Then `CC(C)c1cc(N2CCCC(O)(c3ccccc3Br)C2)nc(N)n1` (stereo not shown) [Compound 236, 1-(2-amino-6-isopropylpyrimidin-4-yl)-3-(2-bromophenyl)piperidin-3-ol], with 5.30 to 6.30.
The result for `Nc1cc(N2CCC=C(c3ncn4ccccc34)C2)nc(N)n1` [Compound 237, 6-(5-(imidazo[1,5-a]pyridin-1-yl)-3,6-dihydropyridin-1(2H)-yl)pyrimidine-2,4-diamine] reads 5.30 to 6.30; that for `CC(C)c1cc(N2CCC=C(c3ncn4ccccc34)C2)nc(N)n1` [Compound 238, 4-(5-(imidazo[1,5-a]pyridin-1-yl)-3,6-dihydropyridin-1(2H)-yl)-6-isopropylpyrimidin-2-amine], 5.30 to 6.30.
`CC(C)c1cc(N2CCCC(c3cnc4ccncn34)C2)nc(N)n1` (stereo not shown) [Compound 239, 4-(3-(imidazo[1,2-c]pyrimidin-3-yl)piperidin-1-yl)-6-isopropylpyrimidin-2-amine]: the pIC50 was 5.30 to 6.30.
As for `CC(C)c1cc(N2CCCC(c3cnn4ccccc34)C2)nc(N)n1` (stereo not shown) [Compound 240, 4-isopropyl-6-(3-(pyrazolo[1,5-a]pyridin-3-yl)piperidin-1-yl)pyrimidin-2-amine], the pIC50 is greater than 6.30.
For `Nc1cc(N2CCCC(c3cnc4ncccn34)C2)nc(N)n1` (stereo not shown) [Compound 241, 6-(3-(imidazo[1,2-a]pyrimidin-3-yl)piperidin-1-yl)pyrimidine-2,4-diamine], the pIC50 was less than 5.30.
Then `CC(C)c1cc(N2CCCC(c3cnc4c(F)cc(F)cn34)C2)nc(N)n1` (stereo not shown) [Compound 242, 4-(3-(6,8-difluoroimidazo[1,2-a]pyridin-3-yl)piperidin-1-yl)-6-isopropylpyrimidin-2-amine], with 5.30 to 6.30.
Take `CC(C)c1cc(N2CCCC(O)(c3cnc4ccccn34)C2)nc(N)n1` (stereo not shown) [Compound 243, 1-(2-amino-6-isopropylpyrimidin-4-yl)-3-(imidazo[1,2-a]pyridin-3-yl)piperidin-3-ol]: the pIC50 is less than 5.30.
The result for `CC(C)c1cc(N2CCCC(c3ncc4ccccn34)C2)nc(N)n1` (stereo not shown) [Compound 244, 4-(3-(imidazo[1,5-a]pyridin-3-yl)piperidin-1-yl)-6-isopropylpyrimidin-2-amine] reads 5.30 to 6.30; that for `CC(C)c1cc(N2CCCC(c3cnc4ncccn34)C2)nc(N)n1` (stereo not shown) [Compound 245, 4-(3-(imidazo[1,2-a]pyrimidin-3-yl)piperidin-1-yl)-6-isopropylpyrimidin-2-amine], greater than 6.30; that for `Nc1cc(N2CCCC(c3n[nH]c4ccccc34)C2)nc(N)n1` (stereo not shown) [Compound 246, 6-(3-(1H-indazol-3-yl)piperidin-1-yl)pyrimidine-2,4-diamine], 5.30 to 6.30.
Then `CC(C)c1cc(N2CCCC(c3c[nH]c4ccccc34)C2)nc(N)n1` (stereo not shown) [Compound 249, 4-(3-(1H-indol-3-yl)piperidin-1-yl)-6-isopropylpyrimidin-2-amine], with 5.30 to 6.30; and `CC(C)c1cc(N2CCCC(c3n[nH]c4ccccc34)C2)nc(N)n1` (stereo not shown) [Compound 251, 4-(3-(1H-indazol-3-yl)piperidin-1-yl)-6-isopropylpyrimidin-2-amine], with 5.30 to 6.30.
Consider `CC(C)c1cc(N2CCCC(n3c(=O)[nH]c4ccccc43)C2)nc(N)n1` (stereo not shown) [Compound 252, 1-(1-(2-amino-6-isopropylpyrimidin-4-yl)piperidin-3-yl)-1,3-dihydro-2H-benzo[d]imidazol-2-one], for which the pIC50 was 5.30 to 6.30.
The result for `CC(C)c1cc(N2CCC(c3cnc4ccccn34)C2)nc(N)n1` (stereo not shown) [Compound 253, 4-(3-(imidazo[1,2-a]pyridin-3-yl)pyrrolidin-1-yl)-6-isopropylpyrimidin-2-amine] reads 5.30 to 6.30.
As for `CNc1cc(N2CCCC(n3ncc4ccccc43)C2)nc(N)n1` (stereo not shown) [Compound 254, 6-(3-(1H-indazol-1-yl)piperidin-1-yl)-N4-methylpyrimidine-2,4-diamine], the pIC50 is less than 5.30.
The result for `Nc1cc(N2CCC(c3cnc4ccccn34)C2)nc(N)n1` (stereo not shown) [Compound 255, 6-(3-(imidazo[1,2-a]pyridin-3-yl)pyrrolidin-1-yl)pyrimidine-2,4-diamine] reads 5.30 to 6.30.
Then `CC(C)c1cc(N2CCCC(n3cnc4ccccc43)C2)nc(N)n1` (stereo not shown) [Compound 256, 4-(3-(1H-benzo[d]imidazol-1-yl)piperidin-1-yl)-6-isopropylpyrimidin-2-amine], with greater than 6.30; and `Nc1cc(N2CCCC(n3c(=O)[nH]c4ccccc43)C2)nc(N)n1` (stereo not shown) [Compound 257, 1-(1-(2,6-diaminopyrimidin-4-yl)piperidin-3-yl)-1,3-dihydro-2H-benzo[d]imidazol-2-one], with less than 5.30.
In the case of `Nc1cc(N2CCCC(c3cnc4ccncn34)C2)nc(N)n1` (stereo not shown) [Compound 258, 6-(3-(imidazo[1,2-c]pyrimidin-3-yl)piperidin-1-yl)pyrimidine-2,4-diamine], the pIC50 was 5.30 to 6.30.
Then `CNc1cc(N2CCCC(n3nc4ccccc4n3)C2)nc(N)n1` (stereo not shown) [Compound 259, 6-(3-(2H-benzo[d][1,2,3]triazol-2-yl)piperidin-1-yl)-N4-methylpyrimidine-2,4-diamine], with less than 5.30; and `Nc1cc(N2CCCC(n3cnc4ccccc43)C2)nc(N)n1` (stereo not shown) [Compound 260, 6-(3-(1H-benzo[d]imidazol-1-yl)piperidin-1-yl)pyrimidine-2,4-diamine], with less than 5.30.
The result for `CN(C)CCCNC(=O)c1ccc(-c2cc(O)c3nc(N)ccc3c2)cc1` [Compound 261, 4-(2-amino-8-hydroxyquinolin-6-yl)-N-(3-(dimethylamino)propyl)benzamide] reads greater than 6.30; that for `CN(C)CCCNC(=O)c1nnc(-c2cc(O)c3ncccc3c2)[nH]1` [Compound 262, N-(3-(dimethylamino)propyl)-5-(8-hydroxyquinolin-6-yl)-4H-1,2,4-triazole-3-carboxamide], greater than 6.30.
For the compound `CN(C)[C@H]1C[C@@H](NC(=O)c2csc(-c3cc(O)c4ncccc4c3)c2)C1` [Compound 264, N-(cis-3-(dimethylamino)cyclobutyl)-5-(8-hydroxyquinolin-6-yl)thiophene-3-carboxamide], the pIC50 was greater than 6.30.
Then `CN(C)CCCNC(=O)c1ccc(-c2cc(O)c3nccc(N)c3c2)cc1` [Compound 265, 4-(4-amino-8-hydroxyquinolin-6-yl)-N-(3-(dimethylamino)propyl)benzamide], with 5.30 to 6.30.
On to `Nc1nccc2c(O)cc(-c3cccc(C(=O)N4CCCC4)c3)cc12` [Compound 266, (3-(1-amino-5-hydroxyisoquinolin-7-yl)phenyl)(pyrrolidin-1-yl)methanone], for which the pIC50 was less than 5.30.
In the case of `CN(C)CCNC(=O)c1ccc(-c2cc(O)c3ncnc(N)c3c2)cc1` [Compound 267, 4-(4-amino-8-hydroxyquinazolin-6-yl)-N-(2-(dimethylamino)ethyl)benzamide], the pIC50 was greater than 6.30.
Then `CN(C)CCNC(=O)c1csc(-c2cc(O)c3ncccc3c2)c1` [Compound 268, N-(2-(dimethylamino)ethyl)-5-(8-hydroxyquinolin-6-yl)thiophene-3-carboxamide], with greater than 6.30; and `CN(C)CCCNC(=O)c1cc(-c2cc(O)c3ncccc3c2)c[nH]1` [Compound 269, N-(3-(dimethylamino)propyl)-4-(8-hydroxyquinolin-6-yl)-1H-pyrrole-2-carboxamide], with greater than 6.30.
For `CN(C)CCNC(=O)c1ccc(-c2cc(O)c3ncncc3c2)cc1` [Compound 270, N-(2-(dimethylamino)ethyl)-4-(8-hydroxyquinazolin-6-yl)benzamide], the pIC50 was greater than 6.30.
The result for `CN(C)CCCNC(=O)c1ncc(-c2cc(O)c3ncccc3c2)cn1` [Compound 271, N-(3-(dimethylamino)propyl)-5-(8-hydroxyquinolin-6-yl)pyrimidine-2-carboxamide] reads greater than 6.30; that for `CN(C)CCCNC(=O)c1ncc(-c2cc(O)c3ncccc3c2)s1` [Compound 272, N-(3-(dimethylamino)propyl)-5-(8-hydroxyquinolin-6-yl)thiazole-2-carboxamide], greater than 6.30; that for `CN(C)CCCNC(=O)c1ccc(-c2cc(O)c3ncc(=O)[nH]c3c2)cc1` [Compound 273, N-(3-(dimethylamino)propyl)-4-(8-hydroxy-3-oxo-3,4-dihydroquinoxalin-6-yl)benzamide], 5.30 to 6.30.
